According to patent US11767289B2, “Methods and compositions for pest control” (VMI Foundation, priority 2010, dated 2023):

Assay: Solvent for extracting tyramides from dissected tissue
Format: physicochemical
Details: extraction of dissected tissue
Description: Mature male […] (winged male sexuals) were used in all experiments. Maturity could only be determined upon dissection and determination of whether or not the male's testes were degenerated. This is the key indicator of maturity. See Ball and Vinson, Int. J. Insect Morphol. Embryol. 13:283-294 (1984) for a description and figure of the fire ant male genitalia. Males were discarded if their testes were not degenerated. Dissection of the male reproductive system was carried out in a drop of water. The entire system included pairs of degenerated testes, seminal vesicle, accessory glands, and the single external genitalia. After dissection of the entire system the three sections were further dissected: A) degenerated testes and seminal vesicle; B) accessory glands; and C) external genitalia. […]

suitability of methylene chloride as solvent: poor solvent
SMILES: CC(=O)NCCc1ccc(O)cc1 [Compound 1, acetyl tyramide]
